“And” between values parts separate entries of the source, which are not always exact repeats. Equal entries are not always repeated.

The test system of data set [1] is VanG phenotype (vanG). The following applies: allele vanG; cited from earlier work.
Data set [2] relates to VanE phenotype (vanE). The note with it: allele vanE; cited from earlier work.
The test system of data set [3] is VanC phenotype (vanC). The note with it: allele vanC; cited from earlier work.
Data set [4] has as its system VanD phenotype (vanD). The following applies: allele vanD; cited from earlier work.
The test system of data set [5] is VanB phenotype (vanB). The following applies: allele vanB; cited from earlier work.
Data set [6] deals with VanA phenotype (vanA). The following applies: allele vanA; cited from earlier work.
Data set [7] relates to E. faecium (ATCC No. 5159, strain MMC4, vanA) gDNA. In words: Real-time PCR on E. faecium (vanA) gDNA. The note with it: Input E. faecium (ATCC No. 5159, strain MMC4 vanA) gDNA; duplicate reactions; oligos 400 nM each. The method, then:
(§1) The oligonucleotide sequences listed in Table 5 were tested for their ability to amplify their intended target sequences. About 25 μL PCRs were formulated using iQTM Supermix for qPCR (BioRad) and oligos at a final concentration of 400 nM each.
(§2) Genomic DNA isolated from E. faecium (ATCC No. 5159, strain MMC4, vanA) and E. faecalis (ATCC No. 700802, strain V583, vanB) were loaded into real-time PCRs using oligonucleotide solutions specific for vanA and vanB. The specificity of the oligonucleotide solutions was assessed by attempting to amplify E. faecalis (vanB) gDNA with vanA oligos and E. faecium (vanA) gDNA with vanB oligos. Amplification plots are illustrated in FIGS. 1 and 2, which show detection of vanA and vanB. Synthetic constructs encoding the vanA and vanB targets were amplified and compared to duplicate reactions where E. faecium (ATCC No. 5159, strain MMC4, vanA) and E. faecalis (ATCC No. 700802, strain V583, vanB) gDNA was amplified.
(§3) PCRs were run on the ABI 7500 with the following Thermal protocol: • 95° C. 5 minute, initial denaturation • 50 cycles of: • 95° C. 15 sec, denaturation, and • 60° C. 1 min, annealing/extension […]
In general terms: Quantitative PCR measures a nucleic acid by following its amplification.

Data set [8] has as its system E. faecalis vanB synthetic construct. Nature of the data set: Real-time PCR amplification of vanB synthetic construct. The note with it: Input synthetic construct (vanB); oligos 400 nM each; ABI 7500, 50 cycles. Here is the method: as §1, §2, §3
Data set [9] concerns E. faecalis (ATCC No. 700802, strain V583, vanB) gDNA. In words: Real-time PCR on E. faecalis (vanB) gDNA. The note with it: Input E. faecalis (ATCC No. 700802, strain V583, vanB) gDNA; duplicate reactions; oligos 400 nM each. Here is the method:
as §1, §2, §3

The subject of data set [10] is E. faecium vanA synthetic construct. Nature of the data set: Real-time PCR amplification of vanA synthetic construct. The following applies: Input synthetic construct (vanA); oligos 400 nM each; ABI 7500, 50 cycles. Here is the method: as §1, §2, §3

Turning to `CN[C@H](CC(C)C)C(=O)N[C@H]1C(=O)N[C@@H](CC(N)=O)C(=O)N[C@H]2C(=O)N[C@H]3C(=O)N[C@H](C(=O)N[C@H](C(=O)O)c4cc(O)cc(O)c4-c4cc3ccc4O)[C@H](O)c3ccc(c(Cl)c3)Oc3cc2cc(c3O[C@@H]2O[C@H](CO)[C@@H](O)[C@H](O)[C@H]2O[C@H]2C[C@](C)(N)[C@H](O)[C@H](C)O2)Oc2ccc(cc2Cl)[C@H]1O` [vancomycin], the MIC in data set [1] was 12-16 (low) μg/mL; in data set [2], 16 (low) μg/mL; in data set [3], 2-32 (low) μg/mL; in data set [4], 128 (moderate) μg/mL; in data set [5], 4-1024 (can be high) μg/mL.
As for teicoplanin, the MIC in data set [1] is given as 0.5 (sensitive) μg/mL; in data set [2] it was 0.5 (sensitive) μg/mL; in [3] it was “≦0.5 (sensitive) μg/mL”; in [6], 16-512 (high) μg/mL; in data set [4], 4 (moderate) μg/mL; in data set [5], “≦0.5 (sensitive) μg/mL”.

B1: vanB: vanB oligonucleotide solution: SEQ ID NOS: 103, 108, and 66 (nucleic acid)
DNA 1: TTACCTACCCTGTCTTTGTGAA
DNA 2: CAGGTTCGTCCTTTGGCGTAACCA
DNA 3: GCTCAATTAAGATTTTTCCATCATATTGTC
modifications: chemistry not given here
B1: the Ct result in data set [7] was “UND”; in data set [8], 24.04; in [9], 21.85 and 21.53.

B2: vanA: vanA oligonucleotide solution: SEQ ID NO: 1, 2, and 5 (nucleic acid)
DNA 1: TTGTGCGGTATTGGGAAACAGT
DNA 2: TGATTTGGTCCACCTCGCCAACAACTAACGC
DNA 3: CTCGACTTCCTGATGAATACGAAAGATTC
modifications: chemistry not given here
Take B2: the Ct is 19.67 and 19.80 in data set [7]; 23.36 in data set [10]; “UND” in [9].

These data come from patent US20160138088A1, “OPTIMIZED PROBES AND PRIMERS AND METHODS OF USING SAME FOR THE DETECTION, SCREENING, ISOLATION AND SEQUENCING OF VANCOMYCIN RESISTANCE GENES AND VANCOMYCIN RESISTANT ENTEROCOCCI” (priority 2009, published 2016).
